In assay [1] the test system is S. pneumoniae strain TIGR4. As to the kind of experiment: Streptococcus pneumoniae infection in mice, survival by defined mortality-endpoint. As to conditions: 0.2 mg/kg micronized, intranasal, twice daily for eleven days; infected intranasally with 1×10^7 CFU; compared to vehicle controls; n=60; Mantel-Cox test **p<0.005. Type of assay: in vivo, C57BL/6 mice. Here is the method:
(§1) Germ-free C57BL/6 male and female mice aged 10-12 weeks were intranasally administered with 0.2%Tween-80/saline vehicle or 0.2 mg/kg micronized 6-(1H-indol-4-yl)-4-(5-{[4-(1-methylethyl)-1-piperazinyl]methyl}-1,3-oxazol-2-yl)-1H-indazole hydrochloride in the same vehicle. Compound dosing was carried out twice daily for eleven days under anaesthesia using 3% isoflurane for induction and 2% isoflurane for maintenance. At the start of day two, and one hour after administering 6-(1H-indol-4-yl)-4-(5-{[4-(1-methylethyl)-1-piperazinyl]methyl}-1,3-oxazol-2-yl)-1H-indazole hydrochloride or vehicle, mice were anaesthetized with isoflurane as above and infected intranasally with 1×10^7 CFU of S. pneumoniae strain TIGR4. S. Pneumoniae was obtained and prepared as described previously (see, for example, Infect. Immun. December 2011; 79(12): 4965-4976) and given in an inoculum of 50 μl PBS per mouse. Mice were monitored three times daily and assessed using a defined mortality-endpoint, where mice displaying three or more of the limiting clinical signs stated in Home Office Project Licence PPL 70/7661 were culled.

Another assay concerns lung gene expression. As to the kind of experiment: Affymetrix GeneChip lung gene expression in S. Pneumoniae-infected mice. Type of assay: in vivo, C57BL/6 mice. As to conditions: 0.2 mg/kg intranasal twice daily; lungs at various timepoints after S. Pneumoniae-infection; genes significantly altered (minimum 1.5 fold-change; p<0.05) compared to vehicle controls; n=6. Here is the method:
as §1
Each band corresponds to a single probe and intensity signifies fold change, as indicated in the legend.

Counter-ions that a name gives are not always drawn.

In the case of `CC(C)N1CCN(Cc2cnc(-c3cc(-c4cccc5[nH]ccc45)cc4[nH]ncc34)o2)CC1` [6-(1H-Indol-4-yl)-4-(5-{[4-(1-methylethyl)-1-piperazinyl]methyl}-1,3-oxazol-2-yl)-1H-indazole hydrochloride], the “defined mortality-endpoint (percentage survival)” value in assay [1] is “reduced a defined mortality-endpoint”. Besides, in the assay on lung gene expression, the lung gene expression result is “altered lung gene expression”.
